{
  "source": "patent US10106523B2",
  "about": "“Amide compound” (ASTELLAS PHARMA INC., priority 2014, dated 2018)",
  "key": {"[1]": {"target": "T1, human EP4 receptor (Homo sapiens, UniProt P35408)", "T1 construct": "purchased Chemicon", "T1 sequence (P35408 whole entry)": "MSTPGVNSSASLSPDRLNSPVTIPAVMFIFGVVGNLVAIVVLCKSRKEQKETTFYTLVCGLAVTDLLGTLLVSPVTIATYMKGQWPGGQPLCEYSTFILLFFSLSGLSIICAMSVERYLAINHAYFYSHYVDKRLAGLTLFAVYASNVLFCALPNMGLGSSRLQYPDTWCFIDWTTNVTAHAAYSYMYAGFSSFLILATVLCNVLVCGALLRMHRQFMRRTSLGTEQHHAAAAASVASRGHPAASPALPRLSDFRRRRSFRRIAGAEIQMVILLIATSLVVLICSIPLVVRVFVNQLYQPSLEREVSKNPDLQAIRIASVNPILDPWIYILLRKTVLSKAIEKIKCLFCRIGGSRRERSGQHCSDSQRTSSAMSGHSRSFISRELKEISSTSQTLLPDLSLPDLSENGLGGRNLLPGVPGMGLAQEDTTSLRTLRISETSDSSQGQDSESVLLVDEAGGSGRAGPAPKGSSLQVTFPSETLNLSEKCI", "assay": "Evaluation test of human EP4 receptor affinity ([3H]PGE2 binding, membrane fraction)", "conditions": "2.9 nmol/L [3H]PGE2, human EP4 cell membrane fraction, 25° C. 60 minutes; read-out: Ki value with respect to the human EP4 receptor", "protocol": "Test Example 2: Evaluation Test of Human EP4 Receptor Affinity\n[^3H]PGE2 and a human EP4 cell membrane fraction (Chemicon) were diluted with an assay buffer (50 mmol/L HEPES-NaOH, 5 mmol/L MgCl2, 1 mmol/L CaCl2 (pH 7.4), 0.5% bovine serum albumin (BSA)), and the test compound and unlabeled PGE2 (Sigma) were diluted with DMSO and the assay buffer. The composition of the reaction liquid (250 μL) was set to be as follows: 175 μL of an assay buffer containing [^3H]PGE2 (final concentration of 2.9 nmol/L), 50 μL of a membrane fraction (Chemicon, 40 μg protein/mL), and 25 μL of a test compound (final concentrations of 0.1, 1, 10, 100, and 1000 nmol/L). For the measurement of the non-specific binding, the unlabeled PGE2 was added to a final concentration of 10 μmol/L. The final concentration of DMSO was set to 1%. The reaction liquid was incubated at 25° C. for 60 minutes. The reaction liquid was filtered with a GF/C filter paper (Whatman), using a cell harvester (Brandel). The filter paper after filtration was washed three times with 1 mL of a solution containing 50 mmol/L HEPES-NaOH (pH 7.4), 500 mmol/L NaCl, and 0.1% BSA. […] The radioactive activity was measured using a liquid scintillation counter (Perkin Elmer). […] The specific binding amount was determined by subtracting the non-specific binding amount from the total binding amount. The Ki value was calculated according to a standard method."}, "[2]": {"target": "T2, rat EP1 receptor (Rattus norvegicus, UniProt P70597)", "T2 construct": "expressed in transfected cells", "T2 sequence (P70597 1-405)": "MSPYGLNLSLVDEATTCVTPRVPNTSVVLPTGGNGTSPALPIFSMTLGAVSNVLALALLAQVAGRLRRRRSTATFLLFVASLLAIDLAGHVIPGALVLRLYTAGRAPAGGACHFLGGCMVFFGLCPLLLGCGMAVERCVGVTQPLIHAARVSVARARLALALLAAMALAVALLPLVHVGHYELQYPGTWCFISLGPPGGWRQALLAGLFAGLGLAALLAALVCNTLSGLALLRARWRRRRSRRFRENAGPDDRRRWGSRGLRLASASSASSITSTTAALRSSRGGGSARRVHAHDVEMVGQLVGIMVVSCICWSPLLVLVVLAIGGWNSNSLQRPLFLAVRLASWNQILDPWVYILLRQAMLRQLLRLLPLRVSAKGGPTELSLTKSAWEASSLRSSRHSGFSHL", "assay": "Selectivity test: antagonistic action on rat EP1 receptor (intracellular Ca2+, HEK-293 cells)", "format": "cell-based", "conditions": "PGE2 100 nmol/L, HEK-293 cells stably expressing rat EP1; read-out: Concentration up to which no inhibitory action of 50% or more on the increase in intracellular Ca2+ concentration due to PGE2 through the rat EP1 receptor", "protocol": "Test Example 9: Evaluation Test of Receptor Antagonistic Action on Rat EP1/EP2/EP3 Receptor (Selectivity Test)\nThe antagonistic action of Compound A on other subtypes ([…], EP2, and EP3) of the rat-derived PGE2 receptor was evaluated. For EP1 and EP3, the intracellular Ca^2+ amount was used as an indicator, and for EP2, the intracellular cAMP amount was used as an indicator, so as to investigate the action of the test compound.\nConstruction of Rat EP1, EP2, or EP3 Receptor Expressing Vector: A rat EP1 receptor gene (GenBank accession No.: D88751.1), a rat EP2 receptor gene (GenBank accession No.: NM_031088.1), or a rat EP3 receptor gene (GenBank accession No.: NM_012704.1) were inserted respectively into an expression vector pcDNA3.1-V5-His-TOPO (Invitrogen Inc.).\nConstruction of Cell Stably Expressing Rat EP1, EP2, or EP3 Receptor: […]\nThe intracellular Ca^2+ concentration was measured using FLIPR tetra (Molecular Devices, LLC.) with the fluorescence intensity of the Dye as an indicator. […] By taking the Ca^2+ concentration when PGE2 was added to a final concentration of 100 nmol/L as 100%, and taking the Ca^2+ concentration when PGE2 was not added as 0%, the Ca^2+ concentration in percentage with a treatment with the compound was calculated."}},
  "data": [
    {"smiles": "Cc1nn(Cc2cc3ccccc3cn2)c(C(=O)N[C@@H](C)c2ccc(C(=O)O)cc2)c1Br", "note": "[Compound A, 4-[(1S)-1-({[4-bromo-1-(isoquinolin-3-ylmethyl)-3-methyl-1H-pyrazol-5-yl]carbonyl}amino)ethyl]benzoic acid]", "values": [
      {"measurement": "Ki", "setting": "[1]", "result": 1.46, "unit": "nM"},
      {"measurement": "IC50", "setting": "[2]", "result": "> 10000", "unit": "nM"}
    ]}
  ]
}
